From patent publication US9562031B1, “Phenethyldihydrobenzodioxolones and methods of use” (Sequoia Sciences, Inc., priority 2015, dated 2017)
Where two headings read alike, the source gives them in different places. Each block holds one compound with its values, some of them ahead of it.

Columns and labels:
[1] = tested on: M14 (amelanotic melanoma) cells; assay: antiproliferation assay (72 h, CELLTITER 96), M14; assay type: cell-based, human
Procedure, shortened: (§1)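 Human M14 melanoma and NCI-H460 lung carcinoma cells in RPMI-1640/10% FBS, seeded at 5×10^2–5×10^4 cells/well and adhered overnight, then exposed to seven compound concentrations for 72 h at 37 °C. Viable cells read by CellTiter 96 AQueous (MTS); IC50 = concentration giving 50% of maximal growth inhibition.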

[2] = tested on: NCI-H460 (large cell lung carcinoma) cells; assay: antiproliferation assay (72 h, CELLTITER 96), NCI-H460; assay type: cell-based, human
Procedure, shortened: as §1

[3] = tested on: K-562 cells; assay: antiproliferation assay, K-562; assay type: cell-based; conditions: Homo sapiens, K562
Experimental: (§2) For the antiproliferation assay, NCI-H460 (large cell lung carcinoma) or M14 (amelanotic melanoma) cells were grown in RPMI-1640 with 10% FBS supplemented with L-glutamine and HEPES. Cells were seeded into 96-well plates at 5×10^2 to 5×10^4 cells/well and allowed to adhere overnight; the medium was then removed. A stock solution of test compound in DMSO was diluted in medium to generate a series of working solutions. Aliquots (100 μl) of the working solutions were then added to the appropriate test wells to expose cells to the final concentrations of compound in a total volume of 100 μl. Seven different concentrations were tested, with 2-5 wells per concentration. Camptothecin was used as a positive control; wells containing vehicle without compound were used as negative controls. Plates were kept for 72 h in a 37° C., 5% CO2 incubator. After incubation, viable cells were detected with the CELLTITER 96 AQueous Non-Radioactive Cell Proliferation Assay (Promega), and IC50 values were determined using GraphPad Prism 5 software.
(§3) Antiproliferation of several of the active compounds was tested against additional cell lines.

[4] = tested on: LOX-IMVI cells; assay: antiproliferation assay, LOX-IMVI; assay type: cell-based; conditions: Homo sapiens
Experimental: as §2, §3

[5] = tested on: MES-SA/Dx5 cells; assay: antiproliferation assay, MES-SA/Dx5; assay type: cell-based; conditions: Homo sapiens
Experimental: as §2, §3
(§4) Compound 4 was tested for antiproliferation activity against several paclitaxel-resistant human cancer cell lines.

[6] = tested on: MOLT-4 cells; assay: antiproliferation assay, MOLT-4; assay type: cell-based; conditions: Homo sapiens
Experimental: as §2, §3

[7] = tested on: NCI/ADR-RES cells; assay: antiproliferation assay, NCI/ADR-RES; assay type: cell-based; conditions: Homo sapiens
Experimental: as §2, §3, §4

[8] = tested on: NCI-H187 cells; assay: antiproliferation assay, NCI-H187; assay type: cell-based; conditions: Homo sapiens
Experimental: as §2, §3

[9] = tested on: OVCAR-3 cells; assay: antiproliferation assay, OVCAR-3; assay type: cell-based; conditions: Homo sapiens
Experimental: as §2, §3

[10] = tested on: SK-Mel-2 cells; assay: antiproliferation assay, SK-Mel-2; assay type: cell-based; conditions: Homo sapiens
Experimental: as §2, §3

[11] = tested on: OVCAR-4 cells; assay: antiproliferation assay, OVCAR-4; assay type: cell-based; conditions: Homo sapiens
Experimental: as §2, §3

[12] = tested on: UO-31 cells; assay: antiproliferation assay, paclitaxel-resistant UO-31; assay type: cell-based; conditions: Homo sapiens
Experimental: as §2, §4

[13] = tested on: HCT-15 cells; assay: antiproliferation assay, paclitaxel-resistant HCT-15; assay type: cell-based; conditions: Homo sapiens
Experimental: as §2, §4

[14] = tested on: EKVX cells; assay: antiproliferation assay, paclitaxel-resistant EKVX; assay type: cell-based; conditions: Homo sapiens
Experimental: as §2, §4

[15] = tested on: DLD-1 cells; assay: antiproliferation assay, paclitaxel-resistant DLD-1; assay type: cell-based; conditions: Homo sapiens
Experimental: as §2, §4

[16] = tested on: ACHN cells; assay: antiproliferation assay, paclitaxel-resistant ACHN; assay type: cell-based; conditions: Homo sapiens
Experimental: as §2, §4

[17] = tested on: TK-10 cells; assay: antiproliferation assay, paclitaxel-resistant TK-10; assay type: cell-based; conditions: Homo sapiens
Experimental: as §2, §4

[18] = Homo sapiens, NCI-H460, Table 3, read-out: NCI-H460 IC50
[19] = Homo sapiens, NCI-H460, Table 7, read-out: NCI-H460 IC50

Compound: C=CC[C@H]1C[C@]2([C@H](C)Cc3cc(F)c(OC)cc3F)OCOC2=CC1=O (relative stereo) [Compound 6, 6-allyl-7a-(1-(2,5-difluoro-4-methoxyphenyl)propan-2-yl)-7,7a-dihydrobenzo[d][1,3]dioxol-5(6H)-one]
IC50 ([1]; Homo sapiens, Table 3): 10 nM
IC50 [2, 18]: 35 nM
IC50 [3]: 28 nM
IC50 [4]: 18 nM
IC50 ([5]; MES-SA/Dx5, MES-SA/Dx5): 14 nM
IC50 [6]: 81 nM
IC50 [7]: 13 nM
IC50 [8]: 22 nM
IC50 [9]: 38 nM

Compound: COc1ccc(CC(C)[C@]23CC(CC(C)=O)C(=O)C=C2OCO3)cc1OC (some centres unmarked) [Compound 106]
IC50 ([1]; Homo sapiens, Table 7): > 20000 nM
IC50 [2, 19]: > 20000 nM

Compound: COc1ccc(CC(C)[C@]23C[C@H](CCCF)C(=O)C=C2OCO3)cc1OC (stereo partly drawn) [Compound 107, (6S,7aR)-7a-(1-(3,4-dimethoxyphenyl)propan-2-yl)-6-(3-fluoropropyl)-7,7a-dihydrobenzo[d][1,3]dioxol-5(6H)-one]
IC50 ([1]; Homo sapiens, Table 7): > 20000 nM
IC50 [2, 19]: > 20000 nM

Compound: C=C[C@H](C)[C@H]1C[C@]2([C@@H](C)Cc3ccc(OC)cc3F)OCOC2=CC1=O [Compound 110, (6R,7aR)-6-((S)-but-3-en-2-yl)-7a-((S)-1-(2-fluoro-4-methoxyphenyl)propan-2-yl)-7,7a-dihydrobenzo[d][1,3]dioxol-5(6H)-one]
IC50 ([1]; Homo sapiens, Table 7): 290 nM
IC50 [2, 19]: 130 nM

Compound: COc1cc(F)c(C[C@H](C)[C@]23C[C@H](CC(C)=O)C(=O)C=C2OCO3)cc1O [Compound 111, (6R,7aR)-7a-((S)-1-(2-fluoro-5-hydroxy-4-methoxyphenyl)propan-2-yl)-6-(2-oxopropyl)-7,7a-dihydrobenzo[d][1,3]dioxol-5(6H)-one]
IC50 ([1]; Homo sapiens, Table 7): 7000 nM
IC50 [2, 19]: 15000 nM

Compound: COc1cc(F)c(C[C@H](C)[C@]23C[C@H](Cc4ccco4)C(=O)C=C2OCO3)cc1O [Compound 113, (6S,7aR)-7a-((S)-1-(2-fluoro-5-hydroxy-4-methoxyphenyl)propan-2-yl)-6-(furan-2-ylmethyl)-7,7a-dihydrobenzo[d][1,3]dioxol-5(6H)-one]
IC50 ([1]; Homo sapiens, Table 7): 1600 nM
IC50 [2, 19]: 2500 nM

Compound: CCS[C@H]1C[C@]2([C@@H](C)Cc3ccc(OC)cc3F)OCOC2=CC1=O [Compound 115, (6S,7aR)-6-(ethylthio)-7a-((S)-1-(2-fluoro-4-methoxyphenyl)propan-2-yl)-7,7a-dihydrobenzo[d][1,3]dioxol-5(6H)-one]
IC50 ([1]; Homo sapiens, Table 7): 11300 nM
IC50 [2, 19]: > 20000 nM

Compound: C=CC[C@H]1C[C@]2([C@@H](C)Cc3cc(F)c(SC)cc3F)OCOC2=CC1=O [Compound 116, (6S,7aR)-6-allyl-7a-((S)-1-(2,5-difluoro-4-(methylthio)phenyl)propan-2-yl)-7,7a-dihydrobenzo[d][1,3]dioxol-5(6H)-one]
IC50 ([1]; Homo sapiens, Table 5): 120 nM
IC50 ([2]; Homo sapiens, NCI-H460, Table 5, read-out: NCI-H460 IC50): 190 nM

Compound: CC(=O)O[C@H]1C(=O)[C@@]2(C)[C@H]([C@H](OC(=O)c3ccccc3)[C@]3(O)C[C@H](OC(=O)[C@H](O)[C@@H](NC(=O)c4ccccc4)c4ccccc4)C(C)=C1C3(C)C)[C@]1(OC(C)=O)CO[C@@H]1C[C@@H]2O [paclitaxel, reference compound]
IC50 ([5]; MES-SA/Dx5, paclitaxel-resistant MES-SA/Dx5): 5000 nM
IC50 ([7]; paclitaxel-resistant NCI/ADR-RES): 9600 nM
IC50 [12]: 240 nM
IC50 [13]: 165 nM
IC50 [14]: 150 nM
IC50 [15]: 90 nM
IC50 [16]: 90 nM
IC50 [17]: 80 nM

More lines, main results first:

IC50 ([1]; Homo sapiens, Table 3): 11 nM
IC50 [2, 18]: 88 nM
IC50 ([2]; Homo sapiens, NCI-H460, as quoted in the pharmacokinetics text, read-out: IC50 against NCI-H460 human lung cancer cells): 90 nM
IC50 [3]: 76 nM
IC50 [6]: 110 nM
IC50 [8]: 91 nM
IC50 [9]: 60 nM
Compound: C=CC[C@H]1C[C@]2([C@@H](C)Cc3ccc(OC)cc3F)OCOC2=CC1=O (relative stereo) [Compound 2, 6-allyl-7a-(1-(2-fluoro-4-methoxyphenyl)propan-2-yl)-7,7a-dihydrobenzo[d][1,3]dioxol-5(6H)-one]
IC50 [4]: 56 nM
IC50 ([5]; MES-SA/Dx5, MES-SA/Dx5): 52 nM
IC50 [7]: 45 nM

IC50 ([1]; Homo sapiens, Table 4): 12 nM
IC50 ([2]; Homo sapiens, NCI-H460, Table 4, read-out: NCI-H460 IC50): 66 nM
IC50 [3]: 25 nM
IC50 [6]: 83 nM
IC50 [9]: 57 nM
IC50 [10]: 9.2 nM
Compound: C=CC[C@H]1C[C@]2([C@@H](C)Cc3ccc(OC)c(C(N)=O)c3)OCOC2=CC1=O [Compound 29, 5-((S)-2-((3aR,5S)-5-allyl-6-oxo-3a,4,5,6-tetrahydrobenzo[d][1,3]dioxol-3a-yl)propyl)-2-methoxybenzamide]
IC50 [4]: 26 nM
IC50 ([5]; MES-SA/Dx5, MES-SA/Dx5): 31 nM
IC50 [7]: 44 nM

IC50 ([1]; Homo sapiens, Table 7): 17 nM
IC50 [2, 19]: 140 nM
IC50 [6]: 120 nM
IC50 [11]: 37 nM
Compound: CCC[C@H]1C[C@]2([C@H](C)Cc3cc(F)c(OC)cc3F)OCOC2=CC1=O [Compound 61, (6S,7aR)-7a-((R)-1-(2,5-difluoro-4-methoxyphenyl)propan-2-yl)-6-propyl-7,7a-dihydrobenzo[d][1,3]dioxol-5(6H)-one]
IC50 [4]: 53 nM
IC50 ([5]; MES-SA/Dx5, MES-SA/Dx5): 84 nM
IC50 [7]: 63 nM

IC50 ([1]; Homo sapiens, Table 7): 650 nM
IC50 [2, 19]: 1500 nM
Compound: COc1cc(F)c(C[C@H](C)[C@]23C[C@H](CC(C)O)C(=O)C=C2OCO3)cc1O (stereo partly drawn) [Compound 109, (6S,7aR)-7a-((S)-1-(2-fluoro-5-hydroxy-4-methoxyphenyl)propan-2-yl)-6-(2-hydroxypropyl)-7,7a-dihydrobenzo[d][1,3]dioxol-5(6H)-one]

IC50 ([1]; Homo sapiens, Table 7): 44 nM
IC50 [2, 19]: 68 nM
Compound: C=C[C@@H](C)[C@H]1C[C@]2([C@@H](C)Cc3ccc(OC)cc3F)OCOC2=CC1=O [Compound 112, (6R,7aR)-6-((R)-but-3-en-2-yl)-7a-((S)-1-(2-fluoro-4-methoxyphenyl)propan-2-yl)-7,7a-dihydrobenzo[d][1,3]dioxol-5(6H)-one]

IC50 ([1]; Homo sapiens, Table 7): 3500 nM
IC50 [2, 19]: 2000 nM
Compound: COc1cc(F)c(C[C@H](C)[C@]23C[C@H](Cc4ccncc4)C(=O)C=C2OCO3)cc1O [Compound 114, (6S,7aR)-7a-((S)-1-(2-fluoro-5-hydroxy-4-methoxyphenyl)propan-2-yl)-6-(pyridin-4-ylmethyl)-7,7a-dihydrobenzo[d][1,3]dioxol-5(6H)-one]

IC50 ([1]; Table 4): > 20000 nM
IC50 ([2]; Table 4, read-out: NCI-H460 IC50): > 20000 nM
Compound: (6S,7aR)-6-allyl-7a-((S)-1-(2-fluoro-4-methoxy-5-morpholinophenyl)propan-2-yl)-7,7a-dihydrobenzo[d][1,3]dioxol-5(6H)-one [Compound 98]
